In ChEMBL document CHEMBL1201862, “PubChem BioAssay data set” (2004) one finds AC50, IC50 and EC50 data, which are given here for 5 compounds.

Broadly, the AC50 is the concentration at which the activity in the assay is half-maximal. A word on the IC50: it is the concentration at which inhibition is half-maximal. The EC50 is the concentration that produces a half-maximal response.

The source made the active and inactive calls.

For experiment [1], the system named is INS1. Put plainly: INS-1E mitochondrial potential loss inhibitors – cell-based, JC-1 fluorescence, dry powder, set 2, dose response (AID 488867). It is filed as functional. The conditions noted are these: Rattus norvegicus.
Experiment [2] deals with INS1. Put plainly: INS-1E mitochondrial potential rescue under cytokines – cell-based, JC-1 fluorescence ratio, dry powder, dose response (AID 488931). It is filed as functional. The conditions noted are these: Rattus norvegicus.
The target of experiment [3] is T1, Dual specificity protein phosphatase 6 (Rattus norvegicus, UniProt Q64346). Type of experiment: functional.
T1 sequence (Q64346 whole entry): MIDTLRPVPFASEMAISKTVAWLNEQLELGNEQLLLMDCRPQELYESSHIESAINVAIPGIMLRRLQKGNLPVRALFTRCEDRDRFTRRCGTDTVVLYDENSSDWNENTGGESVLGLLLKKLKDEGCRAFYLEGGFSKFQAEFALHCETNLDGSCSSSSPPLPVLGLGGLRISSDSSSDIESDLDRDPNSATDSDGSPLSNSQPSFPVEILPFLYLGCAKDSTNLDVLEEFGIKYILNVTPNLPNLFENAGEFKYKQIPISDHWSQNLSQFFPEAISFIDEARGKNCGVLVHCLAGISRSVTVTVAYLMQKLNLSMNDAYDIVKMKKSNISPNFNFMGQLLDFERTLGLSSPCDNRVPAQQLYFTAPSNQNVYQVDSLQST
Experiment [4] concerns the target Glyceraldehyde-3-phosphate dehydrogenase (Homo sapiens, UniProt P04406).
For experiment [5], the target named is T1, Dual specificity protein phosphatase 6.
The target of experiment [6] is T2, Tyrosine-protein phosphatase non-receptor type 7 (Homo sapiens, UniProt P35236).
T2 sequence (P35236 whole entry): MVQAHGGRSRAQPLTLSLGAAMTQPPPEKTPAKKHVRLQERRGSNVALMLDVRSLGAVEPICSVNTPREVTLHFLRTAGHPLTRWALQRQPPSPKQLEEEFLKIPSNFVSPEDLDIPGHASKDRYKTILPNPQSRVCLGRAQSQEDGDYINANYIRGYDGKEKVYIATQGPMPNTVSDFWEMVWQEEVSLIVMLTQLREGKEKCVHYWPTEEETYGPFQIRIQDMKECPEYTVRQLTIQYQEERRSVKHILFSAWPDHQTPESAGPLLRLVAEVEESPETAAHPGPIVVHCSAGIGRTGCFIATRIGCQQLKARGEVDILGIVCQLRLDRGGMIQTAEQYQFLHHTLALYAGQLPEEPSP
Type of experiment: functional.

Experiment [7] addresses Cyclin-dependent kinase 2 (Homo sapiens, UniProt P24941). Put plainly: inhibition of human CDK2/cyclin A – biochemical, cherry-picked samples, selectivity assay for Dyrk1A inhibitor project, dose response (AID 602127).
Experiment [8] deals with Dual specificity protein kinase CLK1 (Homo sapiens, UniProt P49759). Put plainly: inhibition of human CLK1 activity – biochemical, cherry-picked samples, selectivity assay for Dyrk1A inhibitor project, dose response (AID 588811).
Sequence of Dual specificity protein kinase CLK1 (P49759 whole entry): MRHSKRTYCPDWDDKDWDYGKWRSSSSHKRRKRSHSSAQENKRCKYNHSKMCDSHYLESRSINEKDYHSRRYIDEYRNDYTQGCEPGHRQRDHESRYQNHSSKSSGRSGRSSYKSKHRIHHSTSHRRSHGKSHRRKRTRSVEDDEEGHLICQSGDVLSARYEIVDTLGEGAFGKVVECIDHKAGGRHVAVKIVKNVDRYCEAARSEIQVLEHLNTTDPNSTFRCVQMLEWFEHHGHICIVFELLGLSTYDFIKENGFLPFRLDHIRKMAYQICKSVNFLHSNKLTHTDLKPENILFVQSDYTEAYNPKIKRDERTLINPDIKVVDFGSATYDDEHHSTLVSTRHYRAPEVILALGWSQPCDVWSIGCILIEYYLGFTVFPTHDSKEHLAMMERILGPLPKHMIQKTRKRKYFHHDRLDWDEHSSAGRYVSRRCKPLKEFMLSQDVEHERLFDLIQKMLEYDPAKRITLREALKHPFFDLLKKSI
The nature of experiment [9]: NIH-3T3 fibroblast cytotoxicity, dose response, cytotoxicity control, cell-based, fluorescence, Alamar Blue, secondary assay (AID 2327).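 Further: NIH-3T3 mouse fibroblasts cultured with fluconazole at 8 µg/mL.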 Type of experiment: functional.
The target of experiment [10] is T3, Serine/threonine-protein phosphatase (Candida dubliniensis (strain CD36 / CBS 7987 / NCPF 3949 / NRRLY-17841) (Yeast), UniProt B9W6M3).
T3 sequence (B9W6M3 whole entry): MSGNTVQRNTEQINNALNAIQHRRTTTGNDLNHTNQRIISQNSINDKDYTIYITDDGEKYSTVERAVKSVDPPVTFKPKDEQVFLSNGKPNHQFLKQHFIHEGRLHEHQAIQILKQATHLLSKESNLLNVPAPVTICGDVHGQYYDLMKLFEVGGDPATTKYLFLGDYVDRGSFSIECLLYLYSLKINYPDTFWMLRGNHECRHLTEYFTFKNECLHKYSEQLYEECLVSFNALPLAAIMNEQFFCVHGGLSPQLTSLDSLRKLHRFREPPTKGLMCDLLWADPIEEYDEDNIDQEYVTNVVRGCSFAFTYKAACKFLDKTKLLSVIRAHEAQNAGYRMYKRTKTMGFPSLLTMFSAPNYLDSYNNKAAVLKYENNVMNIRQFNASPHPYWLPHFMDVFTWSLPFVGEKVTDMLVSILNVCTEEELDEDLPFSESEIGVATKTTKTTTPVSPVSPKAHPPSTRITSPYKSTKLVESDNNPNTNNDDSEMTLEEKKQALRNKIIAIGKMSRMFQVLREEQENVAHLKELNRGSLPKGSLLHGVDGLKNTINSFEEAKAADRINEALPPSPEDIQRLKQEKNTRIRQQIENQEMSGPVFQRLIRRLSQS
Put plainly: Fluorescence Cell-Based Secondary Assay to Identify Inhibitors of Calcineurin. [Related pubchem assays (depositor defined):AID1979, AID2007]. Type of experiment: functional.

Experiment [11] can be described thus: fluconazole-exposed Candida albicans growth modulators – fluorescence, retest, confirmation (AID 2467). It is filed as functional, cell-based.
For experiment [12], the target named is ATP-dependent molecular chaperone HSP82 (Candida albicans (strain WO-1) (Yeast), UniProt C4YTQ8). Put plainly: steroid-induced GRE reporter decrease in yeast – S. cerevisiae, luminescence, Hsp90 inhibitor project, dose response (AID 2400).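 Further: beta-galactosidase luminescence from glucocorticoid response element reporter as proxy for Hsp90 function; inhibitor potency where signal loss means Hsp90 inhibition.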 It is filed as functional, cell-based.
Sequence of ATP-dependent molecular chaperone HSP82 (C4YTQ8 whole entry): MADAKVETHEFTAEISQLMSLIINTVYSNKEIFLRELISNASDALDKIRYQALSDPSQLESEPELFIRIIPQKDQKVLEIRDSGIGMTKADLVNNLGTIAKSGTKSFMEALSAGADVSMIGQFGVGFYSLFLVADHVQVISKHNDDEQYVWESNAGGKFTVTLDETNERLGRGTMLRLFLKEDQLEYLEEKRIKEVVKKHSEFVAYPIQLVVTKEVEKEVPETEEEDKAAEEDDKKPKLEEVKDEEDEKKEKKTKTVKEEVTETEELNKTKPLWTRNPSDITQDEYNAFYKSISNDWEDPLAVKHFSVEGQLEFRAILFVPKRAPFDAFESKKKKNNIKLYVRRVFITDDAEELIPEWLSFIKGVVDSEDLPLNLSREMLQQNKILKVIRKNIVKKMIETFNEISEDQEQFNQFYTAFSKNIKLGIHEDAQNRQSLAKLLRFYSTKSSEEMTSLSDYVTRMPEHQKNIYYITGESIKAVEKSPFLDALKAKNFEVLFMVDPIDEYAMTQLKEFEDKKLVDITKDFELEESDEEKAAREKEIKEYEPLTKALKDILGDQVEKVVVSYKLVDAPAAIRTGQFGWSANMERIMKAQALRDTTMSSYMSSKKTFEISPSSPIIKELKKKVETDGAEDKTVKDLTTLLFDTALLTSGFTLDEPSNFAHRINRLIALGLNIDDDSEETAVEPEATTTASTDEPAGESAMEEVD
Experiment [13] is described as follows: Luminescence Cell-Based Dose Retest to Confirm Inhibitors of Cancer Stem Cells. [Related pubchem assays (depositor defined):AID2717, AID2721]. Type of experiment: functional. The following applies: Homo sapiens.
The target of experiment [14] is T3, Serine/threonine-protein phosphatase. Put plainly: blockers of CaCl2-induced CDRE-lacZ signaling – S. cerevisiae, luminescence, secondary, dose response (AID 2388).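 Further: yeast reporter cells carrying a calcineurin-responsive lacZ construct stimulated with calcium chloride; luminescent beta-galactosidase reporter signal in whole cells rather than isolated phosphatase activity; potency for inhibition where a drop in reporter signal means calcineurin blockade.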 It is filed as functional, cell-based.
A short description of experiment [15]: reduction of Shn3 3'UTR-driven luciferase in osteoblasts – cell-based, Clone20 osteoblasts, firefly luciferase, cherry-picked, dose response (AID 624132).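 Further: firefly luciferase luminescence from reporter carrying the Shn3 3'UTR in osteoblasts.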 Type of experiment: functional.
A short description of experiment [16]: cells. It is filed as functional, cell-based.
Experiment [17] is described as follows: cells. Type of experiment: functional, cell-based. This is another data set of the same source.
The nature of experiment [18]: NIH3T3 cell viability loss – ATP luminescence, mouse fibroblasts, counter-screen, dose response (AID 2010).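 Further: cells exposed to compound for about 90 hours before reading.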 It is filed as functional, cell-based.
The test system of experiment [19] is A-375. Put plainly: MITF: Counter assay: A375 proliferation Measured in Cell-Based System Using Plate Reader - 2084-03_Inhibitor_Dose_DryPowder_Activity. [Related pubchem assays (depositor defined):AID488944]. Type of experiment: functional. The conditions noted are these: Homo sapiens.
Experiment [20] concerns INS1. Put plainly: INS-1E survival protection against cytokine death – cell-based, luminescence, retest, dose response (AID 449756).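 Further: cell death triggered by IL-1 beta plus TNF-alpha plus IFN-gamma mixture; protective hits raise ATP signal compared with cytokine alone wells.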 The conditions noted are these: Rattus norvegicus. Type of experiment: functional.
Experiment [21] can be described thus: Trypanosoma cruzi growth suppression in host cells – NIH3T3 host cells, beta-gal luminescence, confirmation (AID 2044).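 Further: intracellular parasites grown in NIH/3T3 mouse fibroblasts as host cells; luminescent beta-galactosidase reporter signal from transgenic T. cruzi replicating inside host cells; inhibitors lower the luminescence signal.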 Type of experiment: functional, cell-based.
Experiment [22] deals with T4, Microphthalmia-associated transcription factor (Homo sapiens, UniProt O75030).
T4 sequence (O75030 whole entry): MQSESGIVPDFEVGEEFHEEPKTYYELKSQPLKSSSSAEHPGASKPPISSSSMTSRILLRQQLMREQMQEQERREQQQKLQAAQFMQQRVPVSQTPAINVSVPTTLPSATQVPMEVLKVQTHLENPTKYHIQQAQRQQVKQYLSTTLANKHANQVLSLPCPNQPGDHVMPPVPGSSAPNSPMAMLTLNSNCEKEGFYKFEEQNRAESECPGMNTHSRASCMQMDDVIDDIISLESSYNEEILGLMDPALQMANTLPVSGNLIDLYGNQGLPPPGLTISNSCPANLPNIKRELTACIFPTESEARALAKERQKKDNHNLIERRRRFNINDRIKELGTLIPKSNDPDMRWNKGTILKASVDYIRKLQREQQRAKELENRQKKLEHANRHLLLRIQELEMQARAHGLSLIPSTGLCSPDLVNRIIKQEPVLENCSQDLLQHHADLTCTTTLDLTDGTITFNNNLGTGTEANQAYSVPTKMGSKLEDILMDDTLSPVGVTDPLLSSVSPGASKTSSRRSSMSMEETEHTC
Put plainly: reducers of TRPM1 reporter luminescence, concentration series – cell-based, SK-MEL-5, cherry-picked, set 3, MITF inhibitor project, dose response (AID 493073).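 Further: SK-MEL-5 melanoma cells with luciferase driven by the MITF target TRPM1 promoter.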 It is filed as functional.

Experiment [23] in a line: non-specific 3'UTR reporter inhibition in Clone20-Shn3RL – cell-based, Renilla luciferase, cherry-picked, counter-screen for Shn3 inhibitor project, dose response (AID 624133). It is filed as functional.
The nature of experiment [24]: loss of viability in HepG2 cells – cell-based, CellTiter-Glo, cherry-picked, cytotoxicity control for Shn3 inhibitor project, dose response (AID 624134). It is filed as functional.

Sequence of Glyceraldehyde-3-phosphate dehydrogenase (P04406 whole entry): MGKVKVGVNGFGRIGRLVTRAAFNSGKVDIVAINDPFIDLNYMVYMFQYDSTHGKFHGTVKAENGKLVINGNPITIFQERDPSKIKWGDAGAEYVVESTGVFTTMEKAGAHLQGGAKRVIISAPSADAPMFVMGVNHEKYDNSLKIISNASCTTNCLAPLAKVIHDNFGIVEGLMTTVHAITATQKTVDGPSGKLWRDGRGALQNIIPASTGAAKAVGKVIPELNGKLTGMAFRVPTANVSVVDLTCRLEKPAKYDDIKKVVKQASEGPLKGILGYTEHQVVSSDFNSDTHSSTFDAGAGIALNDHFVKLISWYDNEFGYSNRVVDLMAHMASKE

On to `C[C@@H]1CN([C@@H](C)CO)C(=O)c2cccc(NC(=O)Nc3cccc4ccccc34)c2O[C@H]1CN(C)S(=O)(=O)c1ccc2c(n1)N(C)CCO2`, for which the half-maximal activity concentration (AC50) in [1] is 69.4 µM (active); in [2], 61.1 µM (active).

Take `COCCCNc1nc(=O)n(-c2ccc(C)cc2)c(=O)[nH]1`: the IC50 in [3] was > 100 µM (inactive); in experiment [4], > 100 µM (not active); in [5], > 100 µM (inactive); in [6], > 100 µM (not active).

`Cc1ccc(CN(C)c2ncnc3ccc(-c4ccc5c(c4)OCO5)cc23)o1`: the values for the AC50 in [7] and in [8] were 11.3 µM (active) and < 0.00195 µM (active), respectively.

In the case of `Cc1oc2c(F)c(F)c(F)c(F)c2c1S(=O)(=O)Nc1cccc(C(F)(F)F)c1`, the EC50 in experiment [9] was > 160 µM (inconclusive); in experiment [10], 9.76 µM (active); in experiment [11] it was 0.859 µM (active); in [12], 4.6 µM (active); in experiment [14] it was 18.1 µM (active). The AC50 in experiment [13] is 2.3 µM (active).

`COc1cnc(-c2ccccn2)nc1NC(C)C`: the AC50 in [15] was 2.81 µM (active); in experiment [19], 37.1 µM (active); in [20], 7.93 µM (active); in experiment [22], 12.4 µM (active); in experiment [23] it was 3.16 µM (active); in experiment [24], 5.96 µM (active). Also, the half-maximal effective concentration (EC50) in [16] was 19.7 µM (active); in experiment [17], > 350 µM (not active); in experiment [18] it was 3.77 µM (active); in experiment [9], 23.1 µM (active); in [21], 2.05 µM (active); in experiment [11] it was > 38 µM (not active).
